Test results: patent US20240132461A1, “FLAVONE DEAZA SPERMIDINE ANALOGUES AND THEIR USE TREATING CANCER” (FLORATEK PHARMA S.A., priority 2021, published 2024)

How the values were obtained:
H69AR [1] = assay: Cell viability assay, resistant small cell lung carcinoma cell line H69AR; type: cell-based; details: H69AR multiple drug resistant small cell lung carcinoma cell line
Method: (§1) Antitumor activity of the compounds and doxorubicin as a positive control was assessed by using the CellTiter-Blue Cell Viability Assay (Promega, #G8082) or CellTiter-Glow® Luminescent Cell Viability assay (Promega # G7572) according to the manufacturer's instructions. The compounds were tested at 5 or 6 concentrations in half-log increments (highest concentration 30 μM-100 μM) in duplicate or triplicate well conditions.
(§2) Tumor cells were grown at 37° C. in a humidified atmosphere with 5% CO2 in RPMI 1640 or DMEM medium, supplemented with 10% (v/v) fetal calf serum and 50 μg/ml gentamicin for up to 20 passages, and were passaged once or twice weekly. Cells were harvested using TrypLE or PBS buffer containing 1 mM EDTA, and the percentage of viable cells is determined using a CASY Model TT cell counter (OMNI Life Science). Cells were harvested from exponential phase cultures, counted and plated in 96 well flat-bottom microtiter plates at a cell density depending on the cell line's growth rate (4,000-20,000 cells/well depending on the cell line's growth rate, up to 60,000 for hematological cancer cell lines) in RPMI 1640 or DMEM medium supplemented with 10% (v/v) fetal calf serum and 50 μg/ml gentamicin (140 μl/well). Cultures were incubated at 37° C. and 5% CO2 in a humidified atmosphere. After 24 h, 10 μl of test compounds or control medium are added, and left on the cells for another 72 h. Compounds were serially diluted in DMSO, transferred in cell culture medium, and added to the assay plates. The DMSO concentration was kept constant at <0.3% v/v across the assay plate. Viability of cells was quantified by the CellTiter-Blue® cell viability assay (Promega G8081) or CellTiter-Glow® Luminescent Cell Viability assay (Promega # G7572). Fluorescence (FU) was measured by using the EnSpire® multimode plate reader (Perkin Elmer) (excitation λ=570 nm, emission λ=600 nm) or luminescent detection of ATP in viable cells was used as parameter for proliferation. Luminescence was measured with the microplate luminometer (Promega or Perkin Elmer).
(§3) Sigmoidal concentration-response curves were fitted to the data points (test-versus-control, T/C values) obtained for each tumor model using 4 parameter non-linear curve fit (Charles River DRS Datawarehouse Software) or with GraphPad prism 5.02 software. IC50 values are reported as absolute IC50 values, being the concentration of test compound at the intersection of the concentration-response curves with T/C=50%
The multiple drug resistant cell line H69AR obtained from ATCC, was established from NCI-H69 cells that were grown in the presence of increasing concentrations of adriamycin (doxorubicin). The H69AR cell line is approximately 50-fold resistant to adriamycin as compared to the parental NCI-H69 cell line. SND141, SND142, SND143, SND146, SND147 and SND148 inhibited the resistant cell line H69AR with IC50s below 5 μM, as presented in Table 8.

Panc-1 = assay: Cell viability assay, pancreatic carcinoma cell line Panc-1; type: cell-based; details: Homo sapiens; Panc-1 pancreatic carcinoma cell line
Method: as §1, §2, §3

MIA-Pa-Ca-2 = assay: Cell viability assay, pancreatic carcinoma cell line MIA-Pa-Ca-2; type: cell-based; details: Homo sapiens, MIA PaCa-2; MIA-Pa-Ca-2 pancreatic carcinoma cell line
Method: as §1, §2, §3

RXF 486 = assay: Cell viability assay, MDR renal carcinoma patient derived line RXF 486; type: cell-based; details: RXF 486 MDR renal carcinoma patient derived line
Method: as §1
(§4) Tumor cells were grown at 37° C. in a humidified atmosphere with 5% CO2 in RPMI 1640 or DMEM medium, supplemented with 10% (v/v) fetal calf serum and 50 μg/ml gentamicin for up to 20 passages, and were passaged once or twice weekly. Cells were harvested using TrypLE or PBS buffer containing 1 mM EDTA, and the percentage of viable cells is determined using a CASY Model TT cell counter (OMNI Life Science). Cells were harvested from exponential phase cultures, counted and plated in 96 well flat-bottom microtiter plates at a cell density depending on the cell line's growth rate (4,000-20,000 cells/well depending on the cell line's growth rate, up to 60,000 for hematological cancer cell lines) in RPMI 1640 or DMEM medium supplemented with 10% (v/v) fetal calf serum and 50 μg/ml gentamicin (140 μl/well). […] Viability of cells was quantified by the CellTiter-Blue® cell viability assay (Promega G8081) or CellTiter-Glow® Luminescent Cell Viability assay (Promega # G7572). […]

[2] = In vivo maximum tolerated dose in NOG mice; details: for tolerability at the highest dose administered: 8-10 mg/kg i.p., daily or every other day over 8 days; for MTD at 8 days: mouse, in vivo, ip, repeated i.p. administration, MTD not reached, read-out: maximum tolerated dose (MTD), estimated
Method: In order to evaluate the general toxicity of selected SND compounds in an animal model, a maximum tolerated dose (MTD) in NOG mice has been undertaken. Three mice per group were treated daily or every other day over 8 days at various doses between 5 mg/kg and 10 mg/kg. Administration of the compounds was i.p. A stock solution of the compounds (40 mg/ml in DMSO) was prepared and frozen at −20° C. in aliquots for each treatment. […] Body weights were measured before each treatment. Mice were further observed for 1 week after the last treatment.

[3] = tested on: pancreatic carcinoma cell; assay: Cell viability assay, pancreatic carcinoma cell lines (summary); type: cell-based; details: summary of Table 12; read-out: IC50s, pancreatic carcinoma cell growth
Method: as §1, §2, §3

CALU-6 = assay: Cell viability assay, non-small cell lung carcinoma cell line CALU-6; type: cell-based; details: Homo sapiens; CALU-6 non-small cell lung carcinoma cell line
Method: as §1, §2, §3

lung carcinoma cell = assay: Cell viability assay, lung carcinoma cell lines (summary); type: cell-based; details: summary of Tables 7A-E; read-out: IC50s, lung carcinoma cell growth
Method: as §1, §2, §3

CH-17-0098 = assay: PDX cytotoxicity assay, bile duct PDX CH-17-0098; type: cell-based
Method: PDX-derived cell cultures were obtained from tumors explanted from mice and isolated by mechanical and enzymatic dissociation. […] Cells were harvested and seeded in 96-wells plates at a density of 1.25 to 5×10^3 cells/well for cytotoxicity assays. Cells were incubated 48 h at 37° C. prior to addition of test molecules and vehicle (DMSO, 0.1%) at desired final concentrations. Cell viability was assessed before drugs' addition (T0) and 5 days after test molecules addition by measuring ATP cell content using CellTiter-Glo® Luminescent Cell Viability Assay (Promega) according to the manufacturer's instructions. Luciferase activity was measured on a luminometer (PerkinElmer® EnVision™). Each concentration of compounds was tested in triplicate.
Viability was calculated as a percentage of ATP value compared to vehicle treated controls.
For PDX primary cell cultures, the tumour tissue was washed with PBS containing antibiotic-antimycotic and non-tumour tissue and necrotic tumour tissues were separated. The tumour tissue was transferred to a new dish and cut into 1˜2 mm^3 fragments, resuspended in RPMI-1640 medium and centrifuged at 1,200 rpm for 6 min at room temperature. The pelleted material was resuspended with 15 mL of Tumour Cell Digestion Solution and incubated at 37° C. for 1 hour with agitation. […]

IMR-5-75 = assay: Cell viability assay, brain carcinoma cell line IMR-5-75; type: cell-based; details: IMR-5-75 brain carcinoma cell line
Method: as §1, §4

NCI-H1299 = assay: Cell viability assay, non-small cell lung carcinoma cell line NCI-H1299; type: cell-based; details: Homo sapiens
Method: as §1, §2, §3

SK-OV-3 = assay: Cell viability assay, ovarian carcinoma cell line SK-OV-3; type: cell-based
Method: as §1, §4

MeWo = assay: Cell viability assay, melanoma cell line MeWo; type: cell-based; details: Homo sapiens
Method: as §1
as §2, with “Elmer). […]” for “Elmer).”

A375 = assay: Cell viability assay, melanoma cell line A375; type: cell-based; details: Homo sapiens, A-375
Method: as §1, §2, §3

melanoma cell lines = assay: Cell viability assay, melanoma cell lines (summary); type: cell-based; details: summary of Tables 14A and 14B; read-out: IC50s, melanoma cell lines growth
Method: as §1, §2, §3

H69AR [4] = details: H69AR from ATCC, vs parental NCI-H69; cited from earlier work

## COc1c(O)ccc2c(=O)cc(-c3ccc(CCCCN4CCCC4)cc3)oc12 [SND143, 7-hydroxy-8-methoxy-2-(4-(4-(pyrrolidin-1-yl)butyl)phenyl)-4H-chromen-4-one]
H69AR [1]
  IC50: 3.3 µM
H69AR [1]; Homo sapiens, H69AR
  IC50: < 5 µM
Panc-1
  IC50: 6.09 µM
MIA-Pa-Ca-2
  IC50: 4.96 µM
RXF 486
  IC50: 1.3 µM
[2]
  tolerability at the highest dose administered: well tolerated
  MTD at 8 days: > 10 mg/kg
[3]
  IC50: < 10 µM

## COc1c(O)ccc2c(=O)cc(-c3ccc(CCCCN(C)CCN4CCCCC4)cc3)oc12 [SND146, 7-Hydroxy-8-methoxy-2-(4-(4-(methyl(2-(piperidin-1-yl)ethyl)amino)butyl)phenyl)-4H-chromen-4-one]
CALU-6
  IC50: 17.2 µM
Panc-1
  IC50: 1.2 µM
MIA-Pa-Ca-2
  IC50: 0.87 µM
RXF 486
  IC50: 0.4 µM
Lung carcinoma cell
  IC50: < 20 µM
[3]
  IC50: < 10 µM

## COc1c(O)ccc2c(=O)cc(-c3ccc(CCCCN4CCCCC4)cc3)oc12 [SND148, 7-hydroxy-8-methoxy-2-(4-(4-(piperidin-1-yl)butyl)phenyl)-4H-chromen-4-one]
H69AR [1]
  IC50: 2.5 µM
H69AR [1]; Homo sapiens, H69AR
  IC50: < 5 µM
Panc-1
  IC50: 2.3 µM
MIA-Pa-Ca-2
  IC50: 2.21 µM
CH-17-0098
  IC50: 13.9 µM
[2]
  tolerability at the highest dose administered: well tolerated
  MTD at 8 days: > 10 mg/kg
[3]
  IC50: < 10 µM

## COc1c(O)ccc2c(=O)cc(-c3ccc(CCCCNCCNCCCN)cc3)oc12 [SND211]
IMR-5-75
  IC50: 1.5 µM
NCI-H1299
  IC50: 1.8 µM
SK-OV-3; Homo sapiens, SK-OV-3, SK-OV-3 ovarian carcinoma cell line
  IC50: < 20 µM
SK-OV-3; SK-OV-3 ovarian carcinoma cell line
  IC50: 10.6 µM
MeWo
  IC50: 5.3 µM
A375
  IC50: 1.8 µM
Lung carcinoma cell
  IC50: < 20 µM
Melanoma cell lines
  IC50: < 10 µM

## COc1cccc2c1C(=O)c1c(O)c3c(c(O)c1C2=O)C[C@@](O)(C(=O)CO)C[C@@H]3O[C@H]1C[C@H](N)[C@H](O)[C@H](C)O1 [adriamycin]
H69AR [4]
  resistance of H69AR compared to the parental NCI-H69 cell line: approximately 50 fold
